Reference: a melting point compilation (Tetko et al.; mined from patent text by program, amines drawn as free bases though some values may be those of a salt)

SMILES	melting point [°C]
Cc1ccc(-c2ccc3c(c2)C=C(C(=O)Nc2ccc(CN4CCN(c5ncccn5)CC4)cc2)CC3)cc1	203 to 204
O=C(C=Cc1ccccc1)c1ccc(N2CCN(c3ccncc3)CC2)cc1	208 to 210
Cc1ccc2nc(C)c(CCN3CCC(c4noc5cc(F)ccc45)CC3)c(=O)n2c1	187
OCc1cc2cc(-c3ccsc3)ccc2o1	122 to 124
Cc1c(NC(=O)c2ccc(OCCCC(F)(F)F)cc2F)ccc2cc(CN3CCCC3)cnc12	148
CNc1ccc(Nc2nc(N3CCOCC3)nc(-n3c(C(F)F)nc4c(OC)cccc43)n2)cn1	218 to 221
CC(C)n1nc(-c2c(OCCN3C(=O)c4ccccc4C3=O)nc(N)nc2-c2ccccc2)ccc1=O	232
C=CCn1c(C)nc2c3c(ccc21)[C@@H](OCCF)[C@H](OC(=O)C(C)(C)C)[C@@H](c1ccccc1)O3	119
C=CCNc1c(C(N)=O)cnc2cn[nH]c12	254 to 258
OC[C@@H]1CC[C@H]2CN(c3ncc(F)cn3)CCN2C1	148 to 150
N#Cc1cnn2c(C(F)(F)F)cc(-c3ccccc3F)nc12	165
COC(=O)COc1ccc(N)cc1	65 to 66.8
CC(=O)Nc1ccc(C(=O)CCC(=O)O)cc1Cl	168 to 170
CN1CCN(Cc2ccc(-c3cc4c(Nc5ccc6[nH]ccc6c5)c(C#N)cnc4s3)nc2)CC1	> 245
Cc1cc(SCc2ccnc3oc(-c4ccc(C(F)(F)F)cc4)nc23)ccc1OCC(=O)O	154 to 157
N#CCc1ccc(-n2cc(Cl)cn2)cc1Cl	140
Cc1cc(O)nn1C(=O)Nc1ccccc1	232 to 234
Cc1cc(C)c(Cc2cnc(NCCCCc3ncc(Br)cc3C)[nH]c2=O)cn1	110 to 112
CC1(C)OC(C=Cc2ccc(F)cc2)=CC1=O	55 to 57
Cc1nc2ccc(NC3=NCCN3)c(Br)c2nc1C	252 to 254
Cn1c(-c2ccc(-c3ccco3)cc2)cnc1[C@H](Cc1ccccn1)N(C=O)OC(C)(C)C	131 to 135
CCCn1c(=O)[nH]c(=S)c2[nH]c(C=Cc3ccccc3)nc21	> 290
CCOc1cc(OCCCc2cn(-c3ccccn3)nc2OCC)ccc1CCC(=O)O	110 to 111
CCNC1CCN(c2c(F)cc3c(=O)c(C(=O)O)cn(CC)c3c2F)C1 (configuration not stated)	227 to 229

SMILES	melting point [°C]
CCCCCCCCCCCCCCOc1ccccc1C(=O)OC	39 to 40
CCCCCCCCCCCCCc1cc(C(=O)OCC)c[nH]1	59.5 to 60.5
CC(C)Nc1nc2cc(Cl)c(Cl)cc2[nH]1	218 to 220
O=C(O)CC[C@H](NC(=O)c1ccc(CCn2cnc3nccc-3c2O)cc1)C(=O)O	> 230
CCN1CC(CCN2CCOCC2)N(C)c2ccccc2C1=O (configuration not stated)	128 to 148
NC(=O)Cc1cccc(C(=O)c2ccc(Cl)cc2)c1N	212 to 215
COc1ccc(Sc2cncc3sc(C(N)=O)cc23)cc1	219 to 221
COc1ccc(S(=O)(=O)c2ncn(-c3ccccc3)c2-c2ccccc2)cc1	157
CCCc1c(SCCCOc2ccc(C#N)cc2)ccc(C(C)=O)c1O	90 to 92
NCC1C[N+]([O-])=C(c2ccccc2F)c2cc(Cl)ccc2N1 (configuration not stated)	144 to 148
OCC1OC(n2cnc3c(NCC(c4ccccc4)c4ccccc4)nc(Cl)nc32)C(O)C1O (configuration not stated)	120 to 123
N#CC=Cc1ccc(Cc2ncc[nH]2)cc1	118 to 120
O=C(c1ccc(Cl)cc1)C(CC1OCCO1)Sc1ccccc1 (configuration not stated)	74 to 75
CC(C)(C)CN1C(=O)[C@@H](CC=O)O[C@H](c2ccccc2Cl)c2cc(Cl)ccc21 (relative stereo)	173 to 176
O=C1C(=CNCCO)Cc2c(Cl)cccc21	164 to 166
COc1ccccc1-c1ccc(OCC(=O)Nc2cscc2C(=O)O)nc1	194 to 197
CC(Cl)C(=O)Nc1cccc2c1C(=O)c1cccc(NC(=O)C(C)Cl)c1C2=O (configuration not stated)	288 to 289
Cc1ccc2c(c1)N=Cc1cccc3c1N2CC3	77 to 78
Cc1cc(Nc2ccnc(Nc3ccc(S(=O)(=O)N4CCC(O)(CN(C)C)CC4)cc3)n2)ccc1F	233
CC(c1ccccc1OCCCC(=O)O)N(c1cc(F)ccc1F)S(=O)(=O)c1ccc(Cl)cc1 (configuration not stated)	141 to 142
CCOCc1nc2c(N)nc3cc(-c4ccc(F)c(F)c4)cnc3c2n1CC(C)(C)O	193 to 195
CCC=C(CCC)C(=O)O	38
Cc1c(-c2ccccc2F)[nH]c(N)c1C#N	117 to 118
O=C(C=C1OC(=O)c2cccc(Cl)c21)c1ccccc1	148

SMILES	melting point [°C]
CCc1cc(Nc2ccc(C(Cc3ccccc3)C(=O)O)cc2)n2nccc2n1 (configuration not stated)	195 to 197
O=C(O)CCCCN(Cc1ccccc1)Cc1ccccc1	202 to 205
CCOC(=O)CON=c1c2nccc3cccc(c32)n2cccc12	134
CCC1N=C(c2ccccc2Cl)c2cc(CCC(=O)N3CCOCC3)sc2-n2c(C)nnc21 (configuration not stated)	145 to 147
CN1CCN(C(=O)c2cc(S(=O)(=O)NC34CC5CC(CC(C5)C3)C4)ccc2N)CC1	214 to 215
O=[N+]([O-])c1ccccc1OC[C@@H](O)CNCCc1ccc(Cl)c(Cl)c1	73 to 74
NC(=O)NC1CCC(=O)c2ccsc21 (configuration not stated)	240 to 241
O=C1Nc2ccccc2C1CCCCN1CCN(c2ccc(F)cc2)CC1 (configuration not stated)	113 to 115
CCCCCCCCCCCCCCCCC12CCC3=C(CCc4cc(OC)ccc43)C1=CCC2=O (configuration not stated)	55 to 56
CCCCc1nc2cccc(C(=O)OC)c2n1Cc1ccc(-c2ccccc2C#N)cc1	123 to 124
FC(F)(F)c1nc(-c2ccc(OCCCn3ccnc3)cc2)no1	73 to 73.5
CCCCn1cccc1C(=O)N(C)C	132
CC(=O)Nc1nc2c(Oc3cc(N4CCN([C@H](C)c5ccc(F)cc5)CC4)ncn3)cccc2s1	244 to 246
O=S(=O)(NCc1ccc(Cl)cc1)c1c[nH]cn1	196 to 198
COc1cc(CCC(=O)Nc2cccc(C(=O)O)c2)ccc1O	218 to 220
CO[C@@H]1[C@@H](OC)[C@H](C)O[C@@H](OC(=O)Nc2ccc(-c3ncn(-c4ccc(OC(F)(F)F)cc4)n3)cc2)[C@@H]1OC	186 to 188
COc1ccccc1N1CCN(S(=O)(=O)c2ccc(/C=C/C(=O)NO)cc2)CC1	225 to 226
CCN1CCN(c2ccnc3c(NC(=O)c4c(Cl)cccc4Cl)ccc(C)c23)C1=O	235 to 236
OC(CNC1CC1)COc1ccc(-c2nccs2)cc1 (configuration not stated)	100 to 102
Nc1c2c(nc3ccccc13)C1C=CC2C1 (configuration not stated)	123
CC(C)S(=O)(=O)Oc1cn(C)c2cc(F)ccc2c1=O	130 to 133
CCn1c2ccccc2c2cc(C#N)ccc21	183 to 185
CCOC(=O)/C=C/c1cc(-c2ccccc2)n(-c2ccc(S(C)(=O)=O)cc2)n1	164 to 168
O=C(O)C(Cc1ccsc1)N1C(=O)c2ccccc2C1=O (configuration not stated)	162 to 165
